{"source": "patent US8637040B2", "about": "“Genus-wide chlamydial peptide vaccine antigens” (priority 2008, dated 2014)", "key": {"mice": {"test_system": "mice", "assay": "Anti-Pep4 ELISA after SC immunization with free vs. PLA-microencapsulated Pep4", "assay_type": "in vivo, mouse", "details": "SC x 3; free Pep4 40 μg, Pep4-MP 10, 20 and 40 μg", "experimental": "FIG. 17A-17F show results in ELISA of sera of mice immunized SC with various doses of the Pep4 as immunogen antigen either as free peptide or encapsulated in PLA microparticles (Pep4-MP). MP's were loaded at levels of between about 7.5 and about 9 μg peptide per mg PLA. Δ-Δ: results of pre-bleeds (before immunization). (▴-▴: results after a single primary immunization. ◯-◯: results after 1st boost. ●-●: results after 2nd boost. ▾-▾: results at the time of terminal bleed (day 28). Each point represents the mean absorbance value (OD405) for the sera of 4 or 5 individual mice of the designated group.\nAdditional studies were conducted to evaluate and compare the effects of immunization with the present peptides in free vs. microencapsulated form in PLA microparticles (MPs). Results are shown in FIGS. 17, 18A-18F and 19A-19B.\nMice were immunized subcutaneously 3 times (primary, 1st first boost at day 14, 2nd boost at day 28) according to a schedule shown below with the indicated peptide antigen or soluble mAb2 polypeptide or were control animals that were infected but not immunized (relevant for FIG. 18A-F). Free Pep4 peptide was tested at the 40 μg dose, whereas Pep4-MP was tested at 10, 20 and 40 μg doses. Blood was collected before each immunization and at the end of the experiment (day +28)."}, "Pep4, Pep7, Pep8, Pep10": {"test_system": "Pep4, Pep7, Pep8, Pep10", "assay": "Cross-reactivity between peptides in ELISA", "assay_type": "binding", "details": "sera of mice immunized with a single peptide", "experimental": "Blood was collected prior to immunizations and prior to the two boosts. Sera were tested in ELISA. The ELISA method used in the present examples, in which many if not all the parameters and conditions may be varied or modified in ways that are completely conventional in the art, is described below. • 1. 96 well plates (Immulon HBX4) were coated with 50 μl of diluted antigen (peptides at 1 μg/well made in carbonate buffer) and incubated overnight at 4° C. • 2. Unbound antigen was removed by flicking the contents of the plate into a sink without further washing. • 3. Non-specific binding was blocked or prevented by adding 300 μL/well of 4% BSA/PBS-Tween 20 (0.05%). This was allowed to incubate for 2 hour at room temperature. • 4. The plates were washed once with PBS-Tween 20 (0.05%) and 50 μl of primary antibody was added per well at appropriate dilutions. When using serum, the starting dilution was 1:40 and was further diluted by doublings to 1:80, 1:160, and 1:320 (or higher as desired). Plates were incubated for 1 hour at 37° C. • 5. Plates were washed three times with PBS-Tween (0.05%) as above and 100 μl of secondary antibody was added per well at appropriate dilutions. For alkaline phosphatase-conjugated goat anti-mouse IgG-AP, a dilution of 1:500 was used here. Plates were incubated for 1 hour at 37° C. • 6. Plates were again washed three times as above and 200 μl of substrate solution for Alkaline phosphatase (p-nitro phenyl phosphate or pNPP) was added at a concentration of 5 mg/ml. The color reaction was read in an automated microplate reader at a frequency of […] and the absorbance (or optical density) was registered (referred to as A405 or OD405) Several important observations were made in these tests against the 4 peptides: (a) all 4 peptides were immunogenic and induced increasing anti-peptide responses with subsequent boosts in all mice (except in one non-responder) (FIG. 3). […] See also FIG. 16A-16B\nBoth of these are category #1 peptides. […] That supports the notion that CDR1 and CDR3 of mAb2 are antigenically distinct."}, "chlamydia": {"test_system": "chlamydia", "assay": "Gross anatomical observation of genital tract inflammation after challenge", "assay_type": "in vivo, mouse", "details": "female mice primed and boosted twice SC, necropsy ~28 days post-challenge, vs adjuvant-only control", "description": "FIG. 15A-15C is a set of three photographs showing the gross morphology of tissues of the female reproductive tract of mice immunized and then challenged 28 days earlier with Pep4 or Pep7. Mice had been primed and boosted twice SC, as above, and were challenged with chlamydia 2 weeks later, rechallenged and sacrificed 4 weeks after re-challenge. Inflamed genital tracts outlined in dashed lines.\nGenital tracts were exposed at necropsy ˜28 days post-challenge to score inflammatory changes (and then removed for histological analysis). […] Representative examples for recipients of Peptides 4 and 7 are shown in the center and right panels, respectively. Yellow arrows point to uterine horns (which are further demarcated with dashed lines). It is evident that the peptide immunogens reduced the gross pathology of the genital tract even weeks after challenge. This has been reproduced in a second experiment in which control mice received an irrelevant peptide instead of Peptides 4 or 7. Based on what is known in the art from other contexts, the histopathological results are expected to be consistent with these gross anatomical observations."}}, "data": [{"sequence": "AFPQFRSATLLL [Pep4]", "values": [{"measurement": "anti-Pep4 antibody responses (ELISA)", "setting": "mice", "result": "not as immunogenic as encapsulated Pep4 at equal or lower doses"}, {"measurement": "cross-reactivity of raised Abs with Pep7 (ELISA)", "setting": "Pep4, Pep7, Pep8, Pep10", "result": "cross reacted"}, {"measurement": "gross inflammation / pathology of the genital tract", "setting": "chlamydia", "result": "not nearly as inflamed"}]}]}
